Measured values reported in US11400137B2, “Rectal insulin for treatment of inflammatory bowel diseases” (University of Copenhagen, priority 2016, dated 2022).
“Also recorded” adds a separate entry of the source. Like-named read-outs stand apart in the source and are kept apart here.

Legend:
[1] = tested on: mice with DSS induced colitis (AOM+DSS); assay: AOM+DSS colitis/carcinogenesis model, rectal insulin intervention study (2% DSS); format: in vivo, mouse
Description: In the azoxymethane and dextran sulphate sodium (AOM/DSS) carcinogenesis/colitis model, colitis is induced by DSS which promotes AOM induced tumours. This AOM/DSS model was used on mice having intestinal specific inactivation of the insulin receptor. These mice were obtained by crossing mice (B6.129S4(FVB)-Insrtm1Khn/J) with loxP sites flanking exon 4 in the insulin receptor gene with mice (B6.Cg-Tg(Vil-cre)997Gum/J) expressing the cre-recombinase under the villin promoter (both mice were obtained commercially from the Jackson Laboratory).
The discovery that inactivated insulin signalling in the intestine augments inflammation and stimulates development of inflammation induced tumours, prompted us to the invention that insulin might be used to treat colitis. This was investigated in an intervention study. Thus, wild type mice were set up in the AOM+DSS regime and divided into two groups. One group of mice was treated with rectal administration of insulin while the control group was treated with vehicle (phosphate buffered saline; PBS).
(§1) The insulin treatment regime was as follows: Each day during DSS treatment and the following first 4 days during remission (no DSS treatment) the mice were anaesthetized with isoflurane and 600 μl PBS or PBS+0.06 units human insulin was injected intra rectally. For the injection, a syringe fitted with a flexible silicone feeding needle (for rodents) was used. The mice were placed on their back with the lower end elevated for 10 minutes while still in isoflurane anaesthesia. After recovery from anaesthesia the mice were returned to their cages. The mice were weighed daily and signs of rectal bleeding scored.

[2] = tested on: mice with DSS induced colitis (AOM+DSS); assay: AOM+DSS + rectal insulin dose-response experiment (3% DSS); format: in vivo, mouse
Description: as §1
In this experiment 3% DSS was used as opposed to 2% DSS in the previous experiment (FIG. 3). During induction of inflammation there is a significant (FIG. 6, t-test, p<0.05) effect of the administration of 6 u/kg insulin whereas there is no effect of only 2 u/kg administration. Specifically the weight loss (weight at the end of DSS treatment−the weight at the beginning of the DSS treatment) is 16% less in the 6 u/kg insulin group compared to the PBS group (4.3 g in the PBS group versus 3.6 g in the 6 u/kg insulin group; see FIG. 5.

insulin receptor mRNA = assay: Colonic crypts cultured as organoids with and without insulin; format: cell-based; conditions: insulin added to organoid medium vs none (FIG. 8)
Description: To investigate the effect of insulin on isolated colonic epithelial cells, colonic crypts were cultured as organoids with and without the addition of insulin to the medium. […] Several mechanisms are possible. First it is possible that insulin induces differentiation of the epithelial cells and that this process increases […]. Alternatively the insulin receptor may directly stimulate its own mRNA expression by yet undescribed mechanisms. The finding is important because the positive feedback loop is expected to prolong the duration of the insulin effect on the colonic mucosa.

COX2 mRNA = COX2 mRNA expression in colons of mice with AOM+DSS induced inflammation; format: in vivo, mouse
Description: Cyclooxygenase 2 (COX2/PTGS2) catalyzes the first step in the synthesis of the inflammatory mediators, the prostaglandins, from arachidonic acid. The expression of COX2 is increased in the colonic epithelial cells from patients with active colonic CD and UC and is therefore a biomarker for colonic inflammation in IBD.

[3] = Description: C57BL6 mice were treated with 3% DSS in their drinking water. At the peak of inflammation, the mice were treated with rectal insulin and the blood glucose concentration measured at 0, 15, 30, 60, 90, 120 and 240 minutes. Anaesthesia was induced after the first measurement was taken at time point zero. Anaesthesia was complete at time point 15 minutes and rectal insulin instillation or PBS control instillation also begun at time point 15 minutes.
Car3 mRNA = Car3 mRNA expression in colons during AOM+DSS induced intestinal inflammation; format: in vivo, mouse
Description: On the contrary, in the INSR KO mice with inactivated insulin receptor in the intestinal epithelial cells the expression of Car3 was not increased by inflammation. Therefore it was investigated whether Car3 is a target for intestinal insulin signalling. The methodology described in Example 2 was followed.

colonic epithelial cells = tested on: colonic epithelial cells
Description: Sections of mouse colons from INSR KO mice and INSR Flox mice were stained with an antibody against the proliferation marker Ki67. Thereafter, sections of inflamed (DSS induced) colons obtained from C57BL6 mice treated with either PBS, 2 u or 6 units/kg insulin were also stained with an antibody directed against the Ki67 proliferation marker and the number of KI67 positive cells per crypt counted.

[4] = 6 u/kg insulin, p<0.05 vs PBS, Fischer's exact test

insulin
weight loss from DSS start (day 1) to beginning of remission (day 8) ([1]; 2% DSS, 0.06 units human insulin in 600 μl PBS intra rectally daily, PBS group 2.56 g, t-test p<0.05): 1.68 g
mice with tumours with a size greater than 2 mm ([1]; PBS group 1.3 >2 mm tumours per mouse, p<0.05): 0 mice
mice showing signs of rectal bleeding during treatment ([1]; all PBS mice showed bleeding, p<0.05): two
inflammation score by colonoscopy, late remission phase ([1]; blinded scoring of endoscopy videos, vs PBS): significant lower (and better) inflammation score; also recorded: improves inflammation score
body weight course (FIG. 3) ([1]; daily rectal recombinant human insulin 2 units/kg): re-gained weight
Rectal bleeding: No bleeding (number of mice) ([2]; 2 u/kg insulin, PBS group 4): 8
Rectal bleeding: Bleeding (number of mice) ([2]; 2 u/kg insulin, PBS group 9): 3
weight increase in remission phase, day 8 to day 11 ([2]; 3% DSS, 2 and 6 u/kg rectal insulin (FIG. 7)): dose-dependent increase in weight
effect on weight loss during induction of inflammation ([2]; 3% DSS, 2 u/kg rectal insulin): no effect
weight loss less than in the PBS group ([2]; 3% DSS, 6 u/kg rectal insulin): 16%
weight loss (weight at end of DSS treatment − weight at beginning) ([2]; 3% DSS, 6 u/kg rectal insulin, PBS group 4.3 g, p<0.05): 3.6 g
Rectal bleeding: Bleeding (number of mice) [2, 4]: 3
Rectal bleeding: No bleeding (number of mice) [2, 4]: 12
concentration of insulin receptor mRNA (insulin receptor mRNA): increased almost two-fold
COX2 mRNA expression in colon (COX2 mRNA; 2 u/kg rectal insulin): significantly reduce
COX2 mRNA expression in colon (COX2 mRNA; 6 u/kg rectal insulin): significantly reduce
blood glucose concentration vs PBS control ([3]; 3% DSS, peak of inflammation, 0-240 minutes, rectal insulin): No significant difference
systemic uptake of insulin following rectal instillation ([3]; inferred from blood glucose): negligible
Car3 mRNA expression in colon (Car3 mRNA; 2 u/kg rectal insulin): not
Car3 mRNA expression in colon (Car3 mRNA; 6 u/kg rectal insulin): significantly increased
Ki67 positive cells per crypt, staining pattern vs PBS (colonic epithelial cells; 2 u/kg rectal insulin): No significant difference
Ki67 positive cells per crypt, staining pattern vs PBS (colonic epithelial cells; 6 units/kg rectal insulin): No significant difference
